The values below come from US10611742B2, “4-oxo-4,5-dihydrothiazole derivative, preparation method and use thereof” (Institute of Pharmacology and Toxicology Academy of …, priority 2015, dated 2020).

What all share (format): cell-based
Data set [1] relates to enterovirus EV71 (SZ-98 strain). In words: anti-EV71 activity, therapeutic effect on Vero cell (CPE inhibition, Celltiter Glo). As for the experimental part:
(§1) Test principle: Vero cell, MRC-5 cell, and RD cell were used as host of virus, respectively, and samples were tested for their inhibition of cytopathic effect (CPE) caused by virus.
(§2) 1. Virus strain: enterovirus EV71 (SZ-98 strain, provided by Chinese Center for Disease Control and Prevention), Vero cell (provided by the Cell Bank of Chinese Academy of Sciences), MRC-5 cell (provided by the Cell Bank of Chinese Academy of Sciences), and RD cell (provided by the Cell Bank of Chinese Academy of Sciences), were subjected to passage culture, respectively, and stored at −80° C.
(§3) 2. Sample treatment: a test sample (Compounds 1-14 and positive control agent) was dissolved in dimethyl sulfoxide (DMSO) to prepare a stock solution, which was stored at −20° C. The stock solution was diluted with DMEM medium (Gibco Company) containing 2% fetal bovine serum (Gibco Company) to prepare a 100 μM solution before use, and was 3-fold diluted with the medium to obtain 8 diluted concentrates.
(§4) 3. Positive control agent: Con1 (pitstop2) (purchased from AmyJet Scientific Inc., Abcam), a broad-spectrum antiviral inhibitor.
(§5) 4. Test method: • 4.1 Therapeutic effect: the cells were seeded on a 96-well culture plate, and cultured in a 5% CO2, 37° C. incubator for 24 h. About 100 TCID50 enterovirus EV71 was added to each well. After adsorption at 37° C. for 1 h, the virus solution was discarded, and a drug was added at different diluted concentrates, respectively. Meanwhile, virus control and cell control were set, and cultured at 37° C. […] The virus-inhibition rate of a sample at each concentration was calculated based on the chemiluminescent value, the sample concentration was used as abscissa, and the inhibition rate was used as ordinate, and S-Curve fitting was performed by using Origin software. Half maximal inhibitory concentration (IC50) of each sample for enterovirus EV71 was calculated based on the fitting results. Median toxic concentration (TC50) was determined by the same method. […] To each well, a drug was added at a different diluted concentration, then the cells were cultured at 37° C. for 2 h, and then the drug was discarded. About 100 TCID50 enterovirus EV71 was added to each well, adsorbed at 37° C. for 1.5 h, then the virus solution was discarded, and a maintenance medium free of drug was added. Meanwhile, virus control and cell control were set, and cultured at 37° C. […] The virus-inhibition rate of a sample at each concentration was calculated, and half maximal inhibitory concentration (IC50), median toxic concentration (TC50), and selection index (SI) of each sample for enterovirus EV71 were calculated. The methods for determining and calculating them were as described in Item 4.1
On the technique in general: ATP-based viability assays read luminescence as a measure of living cells.

The test system is the same in data set [2]. In words: anti-EV71 activity, therapeutic effect on MRC-5 cell (CPE inhibition, Celltiter Glo). The following applies: MRC5. As for the experimental part: as §1, §2, §3, §4, §5
For data set [3] the test system is unchanged. Kind of data set: anti-EV71 activity, therapeutic effect on RD cell (CPE inhibition, Celltiter Glo). As for the experimental part:
as §1, §2, §3, §4, §5

Data set [4] has the same test system. In words: anti-EV71 activity, preventive effect on Vero cell (CPE inhibition). As for the experimental part:
as §1, §2, §3, §4, §5

Data set [5] shares this test system. In words: anti-EV71 activity, preventive effect on RD cell (CPE inhibition). As for the experimental part: as §1, §2, §3, §4, §5
Data set [6] is described as follows: median toxic concentration on Vero cell. The following applies: African green monkey, Vero cells. As for the experimental part:
as §2, §3, §5

In another data set the test system is Vero cell. In words: median toxic concentration on Vero cell. As for the experimental part: as §2, §3, §5
Data set [7] can be described thus: median toxic concentration on MRC-5 cell. The following applies: human, MRC-5 cells, Table 1-2 (therapeutic effect), read-out: TC50 (the source's name). As for the experimental part: as §2, §3, §5
A short description of data set [8]: median toxic concentration on RD cell. The following applies: human, RD cells. As for the experimental part:
as §2, §3, §5

Data set [9] relates to clathrin-mediated endocytosis of transferrin. In words: inhibition of clathrin-mediated endocytosis of transferrin in HeLa cells (fluorescence microscope). As for the experimental part:
1. Experiment principle: transferrin was a key protein for clathrin-mediated endocytosis. Therefore, by determining the effect of a compound on transferrin in HeLa cell, the inhibitory effect of the compound on clathrin-mediated endocytosis could be evaluated. 2. Sample treatment: a test compound was dissolved in DMSO to prepare a stock solution, which was stored at −20° C. The stock solution was diluted with HEPES buffer (25 mm HEPES, 20 mm Glucose, 1% BSA, sterile water) to prepare a solution with an initial concentration of […] before use, and was 2-fold diluted with the buffer to obtain 6 diluted concentrations from 1.25 to 40 μmol/L. 4. Test method: HeLa cells (provided by the Cell Bank of Chinese Academy of Sciences) were seeded on a 24-well culture plate coated with 0.1 mg/ml polylysine, a serum-free medium DMEM (Gibco Company) was added at 500 μl/well, and the cells were cultured for one night. To each well, 0.5 μl a test compound at a different diluted concentration or 0.1 v/v % DMSO was added, then the pretreatment was performed for 15 min, and then 20 μg/ml alexa^568 transferrin (2 μl) (TF, SIGMA-ALDRICH Company) was added, and the incubation was carried out at 37° C. for 15 min. The resultant mixture was then washed with Live Cell Imaging Solution (LCIS, Invitrogen Company) and an acid at a low pH ([…] NaCl solution containing 0.5% acetic acid) for 30 s, respectively, followed by fixing with cold methanol, and was observed under fluorescence microscope.

Some results are limits rather than exact numbers.

Take `CCN(CC)c1ccc(/C=C2\SC(NS(=O)(=O)c3cccc4ccccc34)=NC2=O)c(O)c1` [Compound 3, Naphthalene-1-sulfonic acid [5-(2-hydroxy-4-diethylamino-benzylidene)-4-oxo-4,5-dihydro-thiazol-2-yl] amide]: the half-maximal inhibitory concentration (IC50) (usually the concentration that gives 50% inhibition) in data set [1] (EV71 (SZ-98 strain), therapeutic effect on Vero cell, read-out: IC50) is 5.14 µM; in data set [1] (Enterovirus, EV71, Vero cell, read-out: activity (IC50)) it was 5.14 µM; in data set [2] it was more than 7.41 µM; in [3] (EV71 (SZ-98 strain)), 7.41 µM; in data set [3] (Enterovirus, EV71), 7.41 µM; in [4], more than 7.41 µM. This compound also came in with an IC50 in data set [5] of more than 7.41 µM. Also, in data set [3], the “anti-EV71 activity (in words)” value was “better anti-EV71 activity”. The CC50 in [6] (Table 1-1 (therapeutic effect), read-out: TC50 (the source's name)) worked out at 12.8 µM; in [7], 12.8 µM; in data set [8] (read-out: TC50 (the source's name)), 12.8 µM. In addition, the CC50 at 2 h in [6] (Table 2-1 (preventive effect), read-out: TC50) came out at 12.8 µM; in [8] (Table 2-2 (preventive effect), read-out: TC50) it was 12.8 µM. In the data set on Vero cell, the “toxicity compared with the positive control agent (in words)” value is “a lower toxicity than the positive control agent”. For the same compound, in [9] (20 μM), the “endocytosis of transferrin at 20 μM (in words)” value is recorded as “completely inhibited”. The “inhibitory effect on endocytosis of transferrin (in words)” value in data set [9] (1.25 to 40 μmol/L) is reported as “dose-dependent”. Besides, the inhibition (commonly the share of the control response that was lost under treatment) at 20 µM in data set [9] (Homo sapiens, 20 μM compound, read-out: Inhibition rate) was 100%.
